The values below are quoted from earlier work in patent publication US20080131492A1, “Dosage forms for movement disorder treatment” (Spherics, Inc., priority 2006, published 2008).

For the series the following is noted: doses of 400 mg per day.

In the case of `C[C@@](Cc1ccc(O)c(O)c1)(NN)C(=O)O` [carbidopa], the adverse effects entry is “fails to elicit adverse effects”.
